Measured values from ChEMBL document CHEMBL1139716, “Naphtho[2,3-b][1,4]-thiazine-5,10-diones and 3-substituted-1,4-dioxo-1,4-dihydronaphthalen-2-yl-thioalkanoate derivatives: synthesis and biological evaluation as potential antibacterial and antifungal agents” (Bioorg Med Chem Lett, 2006).
In brackets after ≈: the same amount, converted by molar mass.

How the values were obtained:
Staphylococcus aureus = experiment: Antibacterial activity against Staphylococcus aureus by broth microdilution technique; type: functional, organism-based; settings: for IC50: read-out: IC50
Enterococcus faecalis = experiment: Antibacterial activity against Streptococcus faecalis by broth microdilution technique; type: functional, organism-based; settings: for IC50: read-out: IC50
Klebsiella pneumoniae = experiment: Antibacterial activity against Klebsiella pneumoniae by broth microdilution technique; type: functional, organism-based; settings: for IC50: read-out: IC50
Escherichia coli = experiment: Antibacterial activity against Escherichia coli by broth microdilution technique; type: functional, organism-based; settings: for IC50: read-out: IC50
Pseudomonas aeruginosa = experiment: Antibacterial activity against Pseudomonas aeruginosa by broth microdilution technique; type: functional, organism-based; settings: for IC50: read-out: IC50
Candida albicans = experiment: Antifungal activity against Candida albicans by broth microdilution technique; type: functional, organism-based
Candida parapsilosis = experiment: Antifungal activity against Candida parapsilosis ATCC 22019 by broth microdilution technique; type: functional, organism-based; settings: Lodderomyces parapsilosis
Cryptococcus neoformans = experiment: Antifungal activity against Cryptococcus neoformans by broth microdilution technique; type: functional, organism-based
Aspergillus fumigatus = experiment: Antifungal activity against Aspergillus fumigatus by broth microdilution technique; type: functional, organism-based
Sporothrix schenckii = experiment: Antifungal activity against Sporothrix schenckii by broth microdilution technique; type: functional, organism-based
Trichophyton benhamiae = experiment: Antifungal activity against Trichophyton mentagrophytes by broth microdilution technique; type: functional, organism-based, Arthroderma benhamiae

| Compound | MIC (Staphylococcus aureus; Staphylococcus aureus) [µg/mL] | IC50 (Staphylococcus aureus; Staphylococcus aureus) [µg/mL] | MIC (Enterococcus faecalis; Enterococcus faecalis) [µg/mL] | IC50 (Enterococcus faecalis; Enterococcus faecalis) [µg/mL] | MIC (Klebsiella pneumoniae; Klebsiella pneumoniae) [µg/mL] | IC50 (Klebsiella pneumoniae; Klebsiella pneumoniae) [µg/mL] | MIC (Escherichia coli; Escherichia coli) [µg/mL] | IC50 (Escherichia coli; Escherichia coli) [µg/mL] | MIC (Pseudomonas aeruginosa; Pseudomonas aeruginosa) [µg/mL] | IC50 (Pseudomonas aeruginosa; Pseudomonas aeruginosa) [µg/mL] | IC50 (Candida albicans) [µg/mL] | MIC (Candida albicans) [µg/mL] | IC50 (Candida parapsilosis) [µg/mL] | MIC (Candida parapsilosis) [µg/mL] | IC50 (Cryptococcus neoformans) [µg/mL] | MIC (Cryptococcus neoformans) [µg/mL] | IC50 (Aspergillus fumigatus) [µg/mL] | MIC (Aspergillus fumigatus) [µg/mL] | IC50 (Sporothrix schenckii) [µg/mL] | MIC (Sporothrix schenckii) [µg/mL] | other results |
| --- | --- | --- | --- | --- | --- | --- | --- | --- | --- | --- | --- | --- | --- | --- | --- | --- | --- | --- | --- | --- | --- |
| Cc1sc2c(=O)c3ccccc3c(=O)c=2n(C)c1O | 3.12 (≈ 11.4 µM) | 1.92 (≈ 7.02 µM) | 3.12 (≈ 11.4 µM) | 2.58 (≈ 9.44 µM) | 3.12 (≈ 11.4 µM) | 1.98 (≈ 7.24 µM) | 1.56 (≈ 5.71 µM) | 0.96 (≈ 3.51 µM) | 50 (≈ 183 µM) | 49.3 (≈ 180 µM) | 5.3 (≈ 19.4 µM) | 6.25 (≈ 22.9 µM) | 10.4 (≈ 38 µM) | 12.5 (≈ 45.7 µM) | 1.54 (≈ 5.63 µM) | 3.12 (≈ 11.4 µM) | 3.98 (≈ 14.6 µM) | 6.25 (≈ 22.9 µM) | 2.84 (≈ 10.4 µM) | 3.12 (≈ 11.4 µM) | IC50 (Trichophyton benhamiae): 0.9 µg/mL (≈ 3.29 µM); MIC (Trichophyton benhamiae): 1.56 µg/mL (≈ 5.71 µM) |
| CCOC(=O)CSC1=C(NC(C)C)C(=O)c2ccccc2C1=O | 12.5 (≈ 37.5 µM) | 18.5 (≈ 55.4 µM) | 25 (≈ 75 µM) | 20.6 (≈ 61.9 µM) | 50 (≈ 150 µM) | 46.9 (≈ 141 µM) | 25 (≈ 75 µM) | 25 (≈ 74.9 µM) | 50 (≈ 150 µM) | 35.9 (≈ 108 µM) | 44.3 (≈ 133 µM) | 50 (≈ 150 µM) | 23.2 (≈ 69.7 µM) | 25 (≈ 75 µM) | 11.3 (≈ 33.8 µM) | 12.5 (≈ 37.5 µM) | 44.9 (≈ 135 µM) | 50 (≈ 150 µM) | 38.6 (≈ 116 µM) | 50 (≈ 150 µM) | IC50 (Trichophyton benhamiae): 9.8 µg/mL (≈ 29.4 µM); MIC (Trichophyton benhamiae): 12.5 µg/mL (≈ 37.5 µM) |
| CCOC(=O)CSC1=C(NCc2ccccc2)C(=O)c2ccccc2C1=O | 12.5 (≈ 32.8 µM) | 11.6 (≈ 30.4 µM) | > 50 | > 50 | 25 (≈ 65.5 µM) | 22.3 (≈ 58.6 µM) | 12.5 (≈ 32.8 µM) | 9.2 (≈ 24.1 µM) | > 50 | > 50 | > 50 | > 50 | > 50 | > 50 | > 50 | > 50 | > 50 | > 50 | > 50 | > 50 | IC50 (Trichophyton benhamiae): 4.5 µg/mL (≈ 11.8 µM); MIC (Trichophyton benhamiae): 6.25 µg/mL (≈ 16.4 µM) |
| CCOC(=O)CSC1=C(Nc2ccccc2)C(=O)c2ccccc2C1=O | 12.5 (≈ 34 µM) | 11.8 (≈ 32.2 µM) | 25 (≈ 68 µM) | 18.6 (≈ 50.7 µM) | 12.5 (≈ 34 µM) | 9.24 (≈ 25.1 µM) | 6.25 (≈ 17 µM) | 4.32 (≈ 11.8 µM) | 25 (≈ 68 µM) | 22.8 (≈ 62.1 µM) | > 50 | > 50 | > 50 | > 50 | > 50 | > 50 | > 50 | > 50 | 46.7 (≈ 127 µM) | 50 (≈ 136 µM) | IC50 (Trichophyton benhamiae): 23 µg/mL (≈ 62.6 µM); MIC (Trichophyton benhamiae): 25 µg/mL (≈ 68 µM) |
| GENTAMICIN |  |  |  |  |  |  |  |  |  |  |  |  |  |  |  |  |  |  |  |  | MIC (Staphylococcus aureus): 6.25 µg/mL; MIC (Enterococcus faecalis): 0.78 µg/mL; MIC (Klebsiella pneumoniae): 0.78 µg/mL; MIC (Escherichia coli): 0.18 µg/mL; MIC (Pseudomonas aeruginosa): 25 µg/mL |
| CCOC(=O)CSC1=C(Cl)C(=O)c2ccccc2C1=O | 12.5 (≈ 40.2 µM) | 6.98 (≈ 22.5 µM) | 12.5 (≈ 40.2 µM) | 9.24 (≈ 29.7 µM) | 50 (≈ 161 µM) | 33.2 (≈ 107 µM) | 12.5 (≈ 40.2 µM) | 8.56 (≈ 27.5 µM) | 50 (≈ 161 µM) | 44.4 (≈ 143 µM) | > 50 | > 50 | > 50 | > 50 | 10.9 (≈ 35.2 µM) | 12.5 (≈ 40.2 µM) | > 50 | > 50 | 18.7 (≈ 60.3 µM) | 25 (≈ 80.4 µM) | IC50 (Trichophyton benhamiae): > 50 µg/mL; MIC (Trichophyton benhamiae): > 50 µg/mL |
| CCOC(=O)C(C)SC1=C(Cl)C(=O)c2ccccc2C1=O (stereo not drawn) | 12.5 (≈ 38.5 µM) | 7.95 (≈ 24.5 µM) | 12.5 (≈ 38.5 µM) | 9.52 (≈ 29.3 µM) | 50 (≈ 154 µM) | 28.3 (≈ 87.3 µM) | 12.5 (≈ 38.5 µM) | 6.34 (≈ 19.5 µM) | 50 (≈ 154 µM) | 48.3 (≈ 149 µM) | > 50 | > 50 | > 50 | > 50 | 11.5 (≈ 35.3 µM) | 12.5 (≈ 38.5 µM) | > 50 | > 50 | 22.7 (≈ 69.8 µM) | 25 (≈ 77 µM) | IC50 (Trichophyton benhamiae): > 50 µg/mL; MIC (Trichophyton benhamiae): > 50 µg/mL |
| CC1(C)S[C@@H]2[C@H](NC(=O)[C@H](N)c3ccccc3)C(=O)N2[C@H]1C(=O)O [AMPICILLIN] | 0.9 (≈ 2.58 µM) | 0.74 (≈ 2.12 µM) | 0.02 (≈ 0.0572 µM) | 0.01 (≈ 0.0286 µM) | 0.09 (≈ 0.258 µM) | 0.08 (≈ 0.229 µM) |  | 0.01 (≈ 0.0286 µM) | 50 (≈ 143 µM) | 48.7 (≈ 139 µM) |  |  |  |  |  |  |  |  |  |  |  |
| CCOC(=O)C(C)SC1=C(NCCO)C(=O)c2ccccc2C1=O (stereo not drawn) | 6.25 (≈ 17.9 µM) | 4.82 (≈ 13.8 µM) | 6.25 (≈ 17.9 µM) | 5.42 (≈ 15.5 µM) | 12.5 (≈ 35.8 µM) | 11.6 (≈ 33.1 µM) | 3.12 (≈ 8.93 µM) | 2.24 (≈ 6.41 µM) | 25 (≈ 71.5 µM) | 24.5 (≈ 70.2 µM) | 23.3 (≈ 66.6 µM) | 25 (≈ 71.5 µM) | 22.5 (≈ 64.5 µM) | 25 (≈ 71.5 µM) | 6.92 (≈ 19.8 µM) | 12.5 (≈ 35.8 µM) | 23.9 (≈ 68.5 µM) | 25 (≈ 71.5 µM) | 21.9 (≈ 62.8 µM) | 25 (≈ 71.5 µM) | IC50 (Trichophyton benhamiae): > 50 µg/mL; MIC (Trichophyton benhamiae): > 50 µg/mL |
